The conditions of data set [1]: rat, in vivo.
Method: This example was performed in order to investigate an effect of 3-O-β-D-glucopyranosyl-4-methylergost-7-en-3-ol and a squeezed liquid of Aloe vera on an amount of food ingestion (amount of food consumption) and increase in body weight (amount of increased body weight) of rats.
The sample was dissolved in DMSO, and the concentration of the sample was adjusted with distilled water to 10 μg/ml, to thereby prepare Test Sample C. Meanwhile, a crude solution was obtained by crushing Aloe vera gel with a juicer, and then was subjected to filtration with a No. 200 mesh (manufactured by NBC), to thereby obtain a squeezed liquid of the Aloe vera gel as Test Sample D. It was confirmed that the crush extract of Aloe vera gel contained 0.1% of 3-O-β-D-glucopyranosyl-4-methylergost-7-en-3-ol by mass. In addition, final concentration of DMSO was adjusted to 0.2%. […]
42 days after initiation of the administration, the body weights of the rats were measured, and differences between the body weights on the 42nd day and those measured before the initiation of the administration were regarded as amounts of increased body weights. In addition, weights of food consumed per day were measured once a week from the day of the initiation of the administration, and an average of the weights was regarded as an amount of food consumption per day.
A further data set concerns hemoglobin A1c level. The following applies: WO 2005/095436; cited from earlier work.
The subject of data set [2] is ZDF (Zucker Diabetic Fatty) rats. As to the kind of experiment: Inhibitory effect on visceral fat accumulation: mesenteric fat weight in ZDF rats (Example 1). It counts as in vivo. The conditions noted are these: for Mesenteric fat weight: ZDF rats on high-fat diet, oral once a day for 44 days, measured on 45th day, A-1 25 μg/kg, A-2 2.5 μg/kg compound, B-1 2.5 g/kg, B-2 0.125 g/kg Aloe vera solid content; for Mesenteric fat weight as compared with the group administered with the negative sample (decrease to) / Effect of inhibiting visceral fat accumulation (statistical significance, Tukey-Kramer's test): ZDF rats, 45th day; for Mesenteric fat weight as compared with the group administered with the negative sample (decrease to): negative sample 6.83±1.10 g; for Effect of inhibiting visceral fat accumulation (statistical significance, Tukey-Kramer's test): versus negative sample. The protocol: The squeezed liquid of Aloe vera gel was diluted 20 folds to prepare Test Sample B-2.
On 45th day from the initiation of the administration, mesenteric fat weights were measured as the visceral fat.

Molecules are shown by their SMILES.

As to `CC(C)C(C)CCC(C)C1CCC2C3=CCC4C(C)C(OC5OC(CO)C(O)C(O)C5O)CCC4(C)C3CCC21C` [Compound 1, 3-O-β-D-glucopyranosyl-4-methylergost-7-en-3-ol], the “Amount of food consumption as compared with the negative sample group” value in data set [1] is “does not affect the amount of food ingestion”. For the same compound, in the data set on hemoglobin A1c level, the “Effect on hemoglobin A1c level and hyperglycemia” value is “effect of decreasing hemoglobin A1c level and improving hyperglycemia”.

As for `CC(C)C(C)CCC(C)C1CCC2C3=CCC4C(C)C(OC5OC(CO)C(O)C(O)C5O)CCC4(C)C3CCC21C` [Test Sample A-1, 3-O-β-D-glucopyranosyl-4-methylergost-7-en-3-ol], in data set [2], the Mesenteric fat weight was found to be 3.15 ± 0.28 g; the “Mesenteric fat weight as compared with the group administered with the negative sample (decrease to)” value is recorded as 46.2%; the “Effect of inhibiting visceral fat accumulation (statistical significance, Tukey-Kramer's test)” value is on record as “statistically significant effects of inhibiting visceral fat accumulation”.

As to `CC(C)C(C)CCC(C)C1CCC2C3=CCC4C(C)C(OC5OC(CO)C(O)C(O)C5O)CCC4(C)C3CCC21C` [Test Sample A-2, 3-O-β-D-glucopyranosyl-4-methylergost-7-en-3-ol], in data set [2], the Mesenteric fat weight is 4.99 ± 0.53 g; the “Mesenteric fat weight as compared with the group administered with the negative sample (decrease to)” value was found to be 73.1%; the “Effect of inhibiting visceral fat accumulation (statistical significance, Tukey-Kramer's test)” value is given as “statistically significant effects of inhibiting visceral fat accumulation”.

`CC(C)C(C)CCC(C)C1CCC2C3=CCC4C(C)C(OC5OC(CO)C(O)C(O)C5O)CCC4(C)C3CCC21C` [Test Sample C, 3-O-β-D-glucopyranosyl-4-methylergost-7-en-3-ol]: the “Amount of food consumption as compared with the negative sample group” value in data set [1] is on record as “did not show significant increase or decrease in amount of food consumption”.
